According to US20040067960A1, “Heterocyclic substituted piperazines for the treatment of schizophrenia” (priority 2002, published 2004):
Structures can show the parent of a compound that is named as a salt.

Columns and labels:
[1] = system: d-amphetamine-stimulated locomotor activity in rats; experiment: d-Amphetamine-stimulated locomotor activity (LMA); assay type: in vivo, Sprague Dawley rat; conditions: rat, oral, 30 min before d-amphetamine 1 mg/kg s.c., 2 h recording
Experimental: d-Amphetamine-Stimulated Locomotor Activity (LMA):
The LMA model is used to test novel compounds for efficacy as orally active dopaminergic (DA) antagonists. In this model, administration of d-amphetamine to rats induces a stimulation of locomotor activity, measured as centimeters traveled over a two-hour period. Compounds are administered prior to d-amphetamine, and their efficacy in decreasing the stimulated locomotion is assessed as a measure of DA antagonism.
Sprague Dawley (S-D) male rats were obtained from Harlan Laboratories, Indianapolis Ind. All rats weighed 130-150 g at the time of arrival and were housed in groups of 5 for at least 1 week prior to testing. Food and water were available ad lib. At the time of testing, rats weighed 150-200 g. Tests occurred between 9:00 AM and 4:00 PM. All rats were food deprived overnight prior to testing.
Locomotor activity testing in rats was performed using 16-Beam Digiscan Animal Activity Monitors (Accuscan Electronics, Columbus, Ohio). Each test chamber consisted of a Plexiglas box measuring 16×16 inches, placed within the monitor frame. The entire monitor/chamber assembly is further housed inside a stainless steel sound-attenuating chamber (SAC). The SAC is lighted, ventilated, and isolates the rat from room environment. Rats were tested one per chamber. Data is collected using Versamax software.
Each test consists of four treatment groups, vehicle and three doses of the test compound. Each treatment group is comprised of 8 animals. The test is performed in two sessions, with 4 groups of 4 rats in each treatment group tested in each session, and data from the two sessions, typically morning and afternoon of the same day, combined to give a total of 8 rats per group.
Rats were removed from the housing room and transported to the test room in transfer cages. […]
Data were collected as centimeters traveled during the 2 hour test period. The effect of the test compound was expressed as a percentage decrease (or increase) in stimulated locomotor activity relative to the activity observed in the vehicle-treated group. […]

dopamine D2 receptor = target: T1, dopamine D2 receptor (Homo sapiens, UniProt P14416); experiment: Dopamine D2 receptor binding ([3H]spiperone, CHO-hD2L membranes); conditions: [3H]spiperone 0.4 nM
T1 construct: expressed in transfected cells; host or cells: CHO cells (CHO-hD2L)
T1 sequence (P14416 whole entry): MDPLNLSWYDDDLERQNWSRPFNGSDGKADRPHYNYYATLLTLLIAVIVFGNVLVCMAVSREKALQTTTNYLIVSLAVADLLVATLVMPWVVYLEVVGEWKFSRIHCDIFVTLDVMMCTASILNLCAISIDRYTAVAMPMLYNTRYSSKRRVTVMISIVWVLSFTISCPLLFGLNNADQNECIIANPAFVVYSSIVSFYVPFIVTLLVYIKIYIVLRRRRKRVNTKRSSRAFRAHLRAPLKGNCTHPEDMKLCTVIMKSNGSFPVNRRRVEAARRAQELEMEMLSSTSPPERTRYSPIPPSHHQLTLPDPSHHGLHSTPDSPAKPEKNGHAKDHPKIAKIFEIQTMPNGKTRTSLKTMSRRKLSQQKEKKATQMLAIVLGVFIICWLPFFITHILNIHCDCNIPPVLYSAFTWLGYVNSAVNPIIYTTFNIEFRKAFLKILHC
Description: (§1) The ability of the compounds of this invention to bind to the dopamine D2 and serotonin 2A (5HT2A) receptors can be determined using conventional radioligand receptor binding assays. All receptors can be heterologously expressed in cell lines and experiments conducted in membrane preparations from the cell lines using procedures outlined below. IC50 concentrations can be determined by nonlinear regression of concentration-dependent reduction in specific binding. The Cheng-Prussoff equation can be used to convert the IC50 to Ki concentrations.
Dopamine D2 Receptor Binding:
[^3H]Spiperone binding to a membrane preparation from CHO-hD2L cells is carried out in 250 μl of 50 mM Tris-HCl buffer containing 100 mM NaCl, 1 mM MgCl2 and 1% DMSO at pH 7.4. Duplicate samples containing (in order of addition) the test compounds, 0.4 nM [^3H]spiperone and approximately 12 μg protein are incubated for 120 minutes at room temperature. Bound radioligand is separated by rapid filtration under reduced pressure through Whatman GF/B glass fiber filters previously treated with 0.3% polyethyleneimine. Radioactivity retained on the filter is determined by liquid scintillation spectrophotometry.
The title compounds of Examples 1-6 were tested using the above assay, in which specific binding determined in the presence of 1 mM haloperidol was 95%.

[2] = target: T2, serotonin 2A (5HT2A) receptor (Homo sapiens, UniProt P28223); experiment: Serotonin 2A binding ([3H]ketanserin, Swiss-h5HT2A cell membranes); conditions: [3H]ketanserin 1.0 nM
T2 construct: expressed in transfected cells; host or cells: Swiss cells (Swiss-h5HT2A)
T2 sequence (P28223 whole entry): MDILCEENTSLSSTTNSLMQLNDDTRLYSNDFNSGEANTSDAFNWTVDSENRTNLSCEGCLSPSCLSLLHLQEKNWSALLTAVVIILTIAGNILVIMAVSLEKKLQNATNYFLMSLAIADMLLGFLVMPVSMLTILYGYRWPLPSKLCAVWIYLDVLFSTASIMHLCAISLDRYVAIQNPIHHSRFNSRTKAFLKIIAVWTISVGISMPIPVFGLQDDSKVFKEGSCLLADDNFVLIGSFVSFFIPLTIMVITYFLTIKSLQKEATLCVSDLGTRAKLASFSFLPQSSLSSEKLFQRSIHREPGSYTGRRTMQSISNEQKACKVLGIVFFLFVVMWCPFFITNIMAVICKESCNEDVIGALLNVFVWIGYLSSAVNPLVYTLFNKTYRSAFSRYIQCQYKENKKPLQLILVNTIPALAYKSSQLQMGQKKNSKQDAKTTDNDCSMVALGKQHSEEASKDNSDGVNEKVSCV
Description: as §1
[^3H] Ketanserin binding to Swiss-h5HT2A cell membranes can be carried out in 250 μl of 50 mM Tris-HCl buffer pH 7.4. Duplicate samples containing (in order of addition) test compounds, 1.0 nM [^3H]ketanserin, and approximately 75 μg protein are incubated for 120 minutes at room temperature. Bound radioligand is separated by rapid filtration under reduced pressure through Whatman GF/B glass fiber filters previously treated with 0.3% polyethyleneimine. Radioactivity retained on the filter is determined by liquid scintillation spectrophotometry.
The title compounds of Examples 1-6 were tested using the above assay, in which specific binding determined in the presence of 1 mM ketanserin was 90%.

Row | SMILES | melting point [°C] | other results
1 | Cl.O=C1CCc2cccc(CCN3CCN(c4nsc5ccccc45)CC3)c2N1 | 251 | 
2 | CC(=O)N1CCC(C)(C)c2cccc(CCCN3CCN(c4nsc5ccccc45)CC3)c21 (as salt: HCl) [Example 19, 1-{8-[3-(4-BENZO[D]ISOTHIAZOL-3-YL-PIPERAZIN-1-YL)-PROPYL]-4,4-DIMETHYL-3,4-DIHYDRO-2H-QUINOLIN-1-YL}-ETHANONE] | 109 | 
3 | CC(=O)N1CCC(C)(C)c2c(C)ccc(CCN3CCN(c4nsc5ccccc45)CC3)c21 (as salt: HCl) [Example 21, 1-{8-[2-(4-BENZO[D]ISOTHIAZOL-3-YL-PIPERAZIN-1-YL)-ETHYL]-4,4,5-TRIMETHYL-3,4-DIHYDRO-2H-QUINOLIN-1-YL}-ETHANONE] | 132 | 
4 | CC(=O)N1CCC(C)(C)c2c(C)ccc(CCN3CCN(c4noc5ccccc45)CC3)c21 (as salt: HCl) [Example 26, 1-{8-[2-(4-BENZO[D]ISOXAZOL-3-YL-PIPERAZIN-1-YL)-ETHYL]-4,4,5-TRIMETHYL-3,4-DIHYDRO-2H-QUINOLIN-1-YL}-ETHANONE] | 230 | 
5 | CC(=O)N1CCC(C)(C)c2cc(F)cc(CCN3CCN(c4noc5ccccc45)CC3)c21 (as salt: HCl) [Example 28, 1-{8-[2-(4-benzo[d]isoxazol-3-yl-piperazin-1-yl)-ethyl]-6-fluoro-4,4-dimethyl-3,4-dihydro-2H-quinolin-1-yl}-ethanone] | 112 | 
6 | CC1(C)CC(=O)Nc2c(CCN3CCN(c4nsc5ccccc45)CC3)cccc21 [Example 1, 8-[2-(4-1,2-BENZISOTHIAZOL-3-YL-PIPERAZIN-1-YL)-ETHYL]-4,4-DIMETHYL-3,4-DIHYDRO-1H-QUINOLIN-2-ONE] |  | activity in reducing d-amphetamine-stimulated locomotor activity (significant decrease vs vehicle) [1]: active
7 | CN1C(=O)CC(C)(C)c2cccc(CCN3CCN(c4nsc5ccccc45)CC3)c21 [Example 2, 8-[2-(4-1,2-BENZISOTHIAZOL-3-YL-PIPERAZIN-1-YL)-ETHYL]-1,4,4-TRIMETHYL-3,4-DIHYDRO-1H-QUINOLIN-2-ONE] | 261 | Ki (dopamine D2 receptor): 81.3 nM; Ki [2]: 0.18 nM
8 | CC1(C)CC(=O)Nc2c(CCN3CCN(c4nsc5ccccc45)CC3)cc(F)cc21 [Example 3, 8-[2-(4-1,2-BENZISOTHIAZOL-3-YL-PIPERAZIN-1-YL)-ETHYL]-6-FLUORO-4,4-DIMETHYL-3,4-DIHYDRO-1H-QUINOLIN-2-ONE] |  | activity in reducing d-amphetamine-stimulated locomotor activity (significant decrease vs vehicle) [1]: active
9 | CC1(C)Cc2cccc(CCN3CCN(c4nsc5ccccc45)CC3)c2NC1=O [Example 5, 8-[2-(4-1,2-BENZISOTHIAZOL-3-YL-PIPERAZIN-1-YL)-ETHYL]-3,3-DIMETHYL-3,4-DIHYDRO-1H-QUINOLIN-2-ONE] | 95 | Ki (dopamine D2 receptor): 74.9 nM; Ki [2]: 2.07 nM
10 | O=C1CC(c2ccccc2)c2cccc(CCN3CCN(c4nsc5ccccc45)CC3)c2N1 (stereo not drawn) [Example 6, 8-[2-(4-1,2-BENZISOTHIAZOL-3-YL-PIPERAZIN-1-YL)-ETHYL]-4-PHENYL-3,4-DIHYDRO-1H-QUINOLIN-2-ONE] | 227 | Ki (dopamine D2 receptor): 13.8 nM; Ki [2]: 0.04 nM
11 | Cc1ccc(CCN2CCN(c3noc4ccccc34)CC2)c2c1C(C)(C)CCN2 [Example 25, 8-[2-(4-BENZO[D]ISOXAZOL-3-YL-PIPERAZIN-1-YL)-ETHYL]-4,4,5-TRIMETHYL-1,2,3,4-TETRAHYDRO-QUINOLINE] | 135 | 
12 | Cc1cc(=O)[nH]c2c(CCN3CCN(c4nsc5ccccc45)CC3)cccc12 [Example 29, 8-[2-(4-BENZO[D]ISOTHIAZOL-3-YL-PIPERAZIN-1-YL)-ETHYL]-4-METHYL-1H-QUINOLIN-2-ONE] |  | activity in reducing d-amphetamine-stimulated locomotor activity (significant decrease vs vehicle) [1]: active

More lines, main results first:

Row | melting point [°C] | SMILES | other results
13 | 128 | CC(=O)N1CCC(C)(C)c2cc(F)cc(CCN3CCN(c4nsc5ccc(F)cc45)CC3)c21 (as salt: HCl) | 
14 | 284 | CC1(C)CC(=O)Nc2c(CCN3CCN(c4nsc5ccccc45)CC3)cccc21 (as salt: hydrochloride) [Example 1, 8-[2-(4-1,2-BENZISOTHIAZOL-3-YL-PIPERAZIN-1-YL)-ETHYL]-4,4-DIMETHYL-3,4-DIHYDRO-1H-QUINOLIN-2-ONE] | 
15 | 298 | CC1(C)CC(=O)Nc2c(CCN3CCN(c4nsc5ccccc45)CC3)cc(F)cc21 (as salt: hydrochloride) [Example 3, 8-[2-(4-1,2-BENZISOTHIAZOL-3-YL-PIPERAZIN-1-YL)-ETHYL]-6-FLUORO-4,4-DIMETHYL-3,4-DIHYDRO-1H-QUINOLIN-2-ONE] | 
16 | 235 | CC1(C)CC(=O)Nc2c(CCN3CCN(c4n[s+]([O-])c5ccccc45)CC3)cc(F)cc21 (stereo not drawn) [Example 14, 6-Fluoro-4,4-dimethyl-8-{2-[4-(1−oxo-1H-1λ^4-benzo[d]isothiazol-3-yl)-piperazin-1-yl]-ethyl}-3,4-dihydro-1H-quinolin-2-one] | 
17 | 191 | CC1(C)CC(=O)Nc2c(CCN3CCN(c4nsc5ccc(F)cc45)CC3)cc(F)cc21 [Example 16, 6-FLUORO-8-{2-[4-(5-FLUORO-BENZO[D]ISOTHIAZOL-3-YL)-PIPERAZIN-1-YL]-ETHYL}-4,4-DIMETHYL-3,4-DIHYDRO-1H-QUINOLIN-2-ONE] | 
18 | 166 | CC1(C)CC(=O)Nc2c(CCCN3CCN(c4nsc5ccccc45)CC3)cccc21 [Example 18, 8-[3-(4-BENZO[D]ISOTHIAZOL-3-YL-PIPERAZIN-1-YL)-PROPYL]-4,4-DIMETHYL-3,4-DIHYDRO-1H-QUINOLIN-2-ONE] | 
19 | 129 | Cc1ccc(CCN2CCN(c3nsc4ccccc34)CC2)c2c1C(C)(C)CC(=O)N2 [Example 20, 8-[2-(4-BENZO[D]ISOTHIAZOL-3-YL-PIPERAZIN-1-YL)-ETHYL]-4,4,5-TRIMETHYL-3,4-DIHYDRO-1H-QUINOLIN-2-ONE] | 
20 | 170 | Cc1ccc(CCN2CCN(c3noc4ccccc34)CC2)c2c1C(C)(C)CC(=O)N2 [Example 24, 8-[2-(4-BENZO[D]ISOXAZOL-3-YL-PIPERAZIN-1-YL)-ETHYL]-4,4,5-TRIMETHYL-3,4-DIHYDRO-1H-QUINOLIN-2-ONE] | 
21 | 230 | CC1(C)CC(=O)Nc2c(CCN3CCN(c4noc5ccccc45)CC3)cc(F)cc21 [Example 27, 8-[2-(4-BENZO[D]ISOXAZOL-3-YL-PIPERAZIN-1-YL)-ETHYL]-6-FLUORO-4,4-DIMETHYL-3,4-DIHYDRO-1H-QUINOLIN-2-ONE] | 
